According to patent publication US11612609B2, “Uses of oxygenated cholesterol sulfates (OCS)” (Virginia Commonwealth University, priority 2013, dated 2023):
“Also recorded” adds a separate entry of the source.

Assays:
[1] = system: heart ischemia-reperfusion injury; test: Heart ischemia-reperfusion in mice (Example 4); format: in vivo, C67B16 mice
Method: Wild-type C67B16 mice, both males and females, were used in the experiment. After anesthesia, the thorax of each mouse was opened and the heart was subject to a 45-minute ischemic period by ligation of the left anterior descending coronary artery, and then reperfusion was allowed by removing the coronary arterial obstruction. The thorax was closed, and mice were allowed to recover for 24 hours. All animals were sacrificed at the end of the study, 24 h after the procedure, to gain access to the heart tissue. The heart was frozen, sectioned into slices, and then stained to determine the infarct size.
Given the experience that 25-30% of the animals may die within the 24-hour period because of the procedure (occlusion of coronary artery), all groups included 12 animals. The vehicle treated group (12 mice) was compared with 25HC3S treated groups (24 mice). One group of mice received the drug (25HC3S) just before ischemia/reperfusion (FR) and another group received drug about 16-20 h before FR. Administration was via the i.p. route with either vehicle (10% propylene glycol in PBS) or 25HC3S at a dose of 25 mg/kg in the same vehicle.

mortality induced by LPS = test: Mortality induced by LPS, pretreatment with 25HC3S (Example 6C); format: in vivo, C57BL/6J mice; conditions: LPS 4 mg/kg IV; 25HC3S 50 mg/kg 2 hrs before LPS; as of day 3; control 40%
Method: A further experiment to examine the effects of pretreatment of 25HC3S on mortality induced by LPS was conducted. In this experiment, 11-week-old female C57BL/6J mice were IV-injected with LPS (4 mg/kg in PBS). The mice were treated by administration of 25HC3S (50 mg/kg, 10% propylene glycol in PBS) 2 hrs before LPS administration, and mortality (% survival) was monitored. The results are presented below and in FIG. 9C.

[2] = Human Phase I single dose ascending study (Example 7); format: in vivo
Method: A randomized, double blind, and placebo controlled single dose ascending First-in-human Phase 1 study was conducted. The active agent, 25HC3S, was suspended at 30, 100, 300, and 600 mg in 60 mL of ORA-Blend® SF sugar-free flavored oral suspending vehicle. As Placebo dosage form, calcium carbonate, USP, was suspended at 30, 100, 300, and 600 mg in 60 mL of ORA-Blend® SF sugar-free flavored oral suspending vehicle. The suspension, either active or Placebo, was orally administered to each subject. Each dose group had 4 subjects receiving a single dose of active and 2 subjects receiving a single dose of Placebo. All subjects were monitored by health professionals for any potential adverse events for 7 days following administration.

[3] = system: renal ischemia/reperfusion; test: Kidney ischemia-reperfusion in rats (Example 3); format: in vivo, Lewis rats
Method: 25HC3S was dissolved in propylene glycol, at 20 mg/mL, and stored at room temperature as the stock solution. Before use, 3 parts of PBS was mixed with 1 part of DV928 stock solution. The final concentration for injection was 5 mg/ml. Preparation of the Formulation for oral gavage: […]
25HC3S was suspended in 0.5% carboxymethylcellulose (CMC) containing 0.05% tween-80, at 10 mg/mL, and stored at room temperature and mixed well before use.
Adult (9- to 11-week-old) male Lewis (LEW, RE11) rats, 225-250 gram, were housed in a controlled 12-hr light-dark cycle environment and allowed free access to water and regular rat chow. All rats were anesthetized with pentobarbital 40 mg/kg i.p.
Ischemia of the left kidney was performed by transient occlusion of the left renal artery and vein, and ureter for 50 min with a vascular micro-clip. The skin was temporarily closed during the ischemia period, and the rats were put on a heating pad maintained at a temperature of 37° C. At reperfusion, the right kidney was removed before closing the abdomen with 4-0 silk suture.
Animals were randomly divided into 5 groups: • Group A. 25HC3S—i.p. dosing (as pre-treatment) N=12 • Group B. 25HC3S—i.p. dosing (as post-treatment) N=12 • Group C. 25HC3S—oral dosing (as pre-treatment) N=12 • Group D. Vehicle control, i.p. (as pre-treatment) N=6 • Group E. Vehicle control, oral (as pre-treatment) N=6
Rats in the pre-treatment groups received active or vehicle 1 day before (Day −1) the surgical intervention (I/R event) and continued for a total of 4 days. Rats in the post-treatment group received the 1st treatment at 30 min after the renal artery occlusion and continued for a total of 3 days. Blood samples were taken from all rats 2 days before the surgery (as baseline), 3 days after the surgery, and 7 days after the surgery for serum creatinine and blood urea nitrogen (BUN) analysis. All rats were sacrificed on Day 7.

[4] = system: sepsis induced by the endotoxin lipopolysaccaride (LPS); test: Sepsis induced by LPS, 25HC3S given 2 hrs after LPS (Examples 6A and 6B); format: in vivo, C57BL/6J mice; conditions: 25HC3S 25 mg/kg 2 hrs after LPS, vs vehicle
Method: To examine the effect of 25HC3S on sepsis induced by the endotoxin lipopolysaccaride (LPS), 11-week-old female C57BL/6J mice were IV-injected with LPS (30 mg/kg or 40 mg/kg, in PBS) 2 hrs before being treated by administration of 25HC3S (25 mg/kg, 10% propylene glycol in PBS), and mortality was monitored (% survival).

[5] = system: high dose of acetaminophen (ATMP); test: ATMP 600 mg/kg in mice, 10-day mortality and liver function markers (Example 1B); format: in vivo
Method: In another set of experiments, female mice were peritoneally-injected with acetaminophen (600 mg/kg, in 20% EtOH in PBS) and were then further treated by peritoneal injection of 25HC3S (25 mg/kg in 10% PG in PBS) 2 and 24 hrs later. Control mice received ATMP without 25HC3S. Mortality was monitored for 10 days.

[6] = system: acute liver failure, as induced by PO administration of acetaminophen; test: ATMP 300 mg/kg PO in mice, serum chemistry and body weight (Example 2); format: in vivo; conditions: 25HC3S 25 mg/kg IP or PO, 1 hour and 24 hours after ATMP 300 mg/kg PO; vs route-matched vehicle
Method: Mice were challenged with acetaminophen (300 mg/kg PO) and then treated with vehicle or 25HC3S (25 mg/kg) by IP injection or PO gavage, one (1) hour and 24 hours after acetaminophen challenge. Measurements and samples included whole blood for serum and clinical chemistry analysis (ALT, AST, ALK, LDH, BUN and glucose) and livers and kidneys for formalin fixation and histology.

[7] = system: acute liver failure induced by acetaminophen; test: Acetaminophen (ATMP) 500 mg/kg acute liver failure in mice, serum markers (Example 1A); format: in vivo
Method: (§1) Female mice were peritoneally-injected with acetaminophen (500 mg/kg, in 10% ethanol in PBS) either 0.5 or 2 hrs before being treated by administration of 25HC3S (20 or 25 mg/kg, 10% propylene glycol in PBS). Sera were collected 24 or 48 hrs following acetaminophen administration and enzymatic activities and other serum parameters were measured.

[8] = Level of 25HC3S in blood and tissues after administration (Example 1A, FIG. 3); format: in vivo, mice
Method: FIGS. 3A and B. Concentration of 25HC3S in A, blood and B, the indicated tissues of rats subjected to high levels of ATMP.
as §1
FIGS. 3A and 3B show the level of 25HC3S in blood (3A) and the indicated tissues (3B) at the indicated times after administration.

[9] = system: transient focal cerebral ischemia (tMCAO); test: Brain stroke study, transient middle cerebral artery occlusion (tMCAO) in rats (Example 5); format: in vivo, Sprague Dawley rats; conditions: for tissue viability (T2 relaxation time): lower T2 in ms vs vehicle
Method: Transient focal cerebral ischemia was produced by right side middle cerebral artery (MCA) occlusion in male Sprague Dawley rats under anesthesia. After 120 min of ischemia, the MCA blood flow was restored. The procedure was therefore named tMCAO. All rats were given an i.p. injection of saline (4 ml per rat) after the surgery. Three groups of rats were used in the study: • Group A: 12 sham operated rats received vehicle by ip injection • Group B: 12 tMCAO rats received vehicle by ip injection • Group C: 12 tMCAO rats received 25HC3S by ip injection The parameters measured were as follows: • Mean body weight over time • Mean 7- and 20-point Neuroscore over time • Limb Placing test results over time • Mean infarct volumes (mm3), edema volumes (mm3) and T2-relaxation times (ms) Behavioral testing was conducted at 24 hours, 3 days, and 7 days post transient middle cerebral artery occlusion (tMCAO). Both 20-point Neuroscore and 7-point Neuroscore tests were conducted to assess post-ischemic motor and behavioral deficits. The Limb Placing test was conducted to assess the sensory motor integration of fore- and hind-limbs responses to tactile and proprioceptive stimulation. MRI acquisitions in vivo for all rats were performed at 24 h and 7 days after tMCAO.Lesion size, tissue viability (T2 in milliseconds), and brain edema were determined using absolute T2-MRI. Eighteen (18) coronal slices of thickness 1 mm were acquired using field-of-view imaging matrix. Absolute T2-values from contra-lateral cortex were used as a reference for tissue viability. All MRI data were analyzed using Matlab software. The infarct volume/oedema analysis was done by an observer blinded to the treatment groups. Results

[10] = oral gavage pretreatment, higher dose, Day 3, to a lesser extent than injection
[11] = post-treatment by injection, first dose 30 min after occlusion, 3 days
[12] = pretreatment by IP injection a day before surgery, once daily 4 days
[13] = 25HC3S 20 or 25 mg/kg 2 hours after ATMP 500 mg/kg, within 24 hrs
[14] = 24 hours post tMCAO, vs vehicle, difference not statistically significant
[15] = 24 hours, 3 days, 7 days post tMCAO, vs vehicle, trend of better scores

In the case of C[C@H](CCCC(C)(C)O)[C@H]1CC[C@H]2[C@@H]3CC=C4C[C@@H](OS(=O)(=O)O)CC[C@]4(C)[C@H]3CC[C@]12C [25HC3S, 5-cholesten-3, 25-diol, 3-sulfate], the size of infarction ([1]; 25HC3S 25 mg/kg i.p. just before or 16-20 h before ischemia/reperfusion, vs vehicle) was “no statistically significant difference”, the 24-hour survival rate ([1]; 25HC3S 25 mg/kg i.p., vehicle group 64%) was 86% and the survival rate (mortality induced by LPS) was 100%. The adverse effects ([2]; single oral dose 30, 100, 300, 600 mg suspension, monitored 7 days) was “No adverse effects were observed”, the tolerability ([2]; single oral dose 30-600 mg) was “well tolerated” and the bioavailability ([2]; single oral dose, plasma samples (FIG. 10)) was “high bioavailability”. For the same compound, the “serum BUN level” value [3, 10] was “reduced”, the serum creatinine level [3, 10] was “reduced” and the “serum BUN level” value [3, 11] was “reduced”. The serum creatinine level [3, 11] was “reduced”, the “serum BUN level” value [3, 12] was “significantly improved” and the serum creatinine level [3, 12] was “significantly improved”. For the same compound, the “survival (mortality monitored)” value ([4]; LPS 30 mg/kg IV) was “lived significantly longer”, the “survival (mortality monitored)” value ([4]; LPS 40 mg/kg IV) was “lived significantly longer” and the survival rate ([5]; 25HC3S 25 mg/kg ip 2 and 24 hrs after ATMP 600 mg/kg, monitored 10 days, vs control) was “much higher than that of control animals”. The “liver function (damage) markers ALT, AST, AKP and ADH” value ([5]; surviving mice, sera at 48 hours, vs control (ATMP and vehicle)) was “lower values of each enzyme”, the “attenuation of body weight loss” value [6] was “no statistically significant attenuation” and the “attenuation of elevated clinical chemistry parameters (LDH, AST and ALT)” value [6] was “no statistically significant attenuation”. For the same compound, the “decrease of serum ALT” value [7, 13] was 58%, the “decrease of serum AST” value [7, 13] was 45% and the “decrease of serum LDH” value [7, 13] was 60%. The “markers of liver and kidney function (ALT, AST, ALK, LDH, BUN, glucose)” value ([7]; 25HC3S 0.5 hours after ATMP, in 48 hrs) was “returned most markers of liver and kidney function to normal levels”, the half-life ([8]; female, mouse, blood, FIG. 3A, read-out: half life in circulation (converted)) was ~30 h and the tissue distribution ([8]; indicated tissues, FIG. 3B) was “widely distributed in different tissues”. For the same compound, the brain lesion volume ([9]; 24 hours after tMCAO, vs vehicle, difference not statistically significant) was “smaller”, the “tissue viability (T2 relaxation time)” value ([9]; 24 hours post tMCAO) was “statistically higher tissue viability” and the “% edema” value [9, 14] was “smaller”. For the same compound, the edema volume [9, 14] was “smaller”, the “7-point Neuroscore” value [9, 15] was “no statistically significant differences” and the “20-point Neuroscore” value [9, 15] was “no statistically significant differences”. For the same compound, the “Limb Placing test” value [9, 15] was “no statistically significant differences”, the brain lesion volume ([9]; 7 days after tMCAO, vs vehicle, difference not statistically significant) was “smaller” and the “% edema” value ([9]; 7 days post tMCAO) was “nearly recovered; also recorded: some higher levels of edema”. For the same compound, the edema volume ([9]; 7 days post tMCAO) was “nearly recovered; also recorded: some higher levels of edema”, the “tissue viability (T2 relaxation time)” value ([9]; 7 days post tMCAO) was “statistically higher tissue viability” and the “irritation, discomfort or adverse side effects” value ([9]; ip injection in tMCAO rats) was “did not cause irritation, discomfort, or any adverse side effects”. For the same compound, the body weight recovery ([9]; starting from Day 4 after tMCAO, vs vehicle) was “faster recovery in body weights”.
